Data: patent US20050004018A1, “Use of antitumoral compound in cancer therapy” (priority 2001, published 2005)
Read-outs that look alike come from different tables or passages of the source.

Experiments:
murine progenitor cells = conditions: cited from earlier work
dogs = conditions: cited from earlier work
human tumor xenografts = conditions: broad range of in vivo tumor models, including human tumor xenografts in nude mice; cited from earlier work
cancer patients [1] = conditions: 1-hr intravenous infusion every 3 weeks; cited from earlier work
cancer patients [2] = test: phase II programme, 3 hour every 3 weeks schedule; type: in vivo, human
Description: (§1) Two schedules (24 hour every 3 weeks and 3 hour every 3 weeks) reached the phase II programme. The phase II programme confirmed the activity against soft tissue sarcoma and ovarian cancer. However, the recommended starting dose for the 3 hour schedule had to be reduced because of serious toxicity. The recommended dose for the 24 hour schedule was 1500 μg /m^2 and the recommended dose for the 3 hour schedule is at present 1300 μg/m^2.
Serious increases of transaminases (grade 3-4) were more frequent with the 3 hour schedule than with the 24 hour schedule. […] This toxicity has improved with the amendment that reduces the starting dose to 1300 (grade 3 and 4 ALT in 38% and 8.5% of patients), although it would be desirable to reduce it further. Cholestasis is less severe and less frequent observing grade 1, 2 and 3 alkaline phosphatase in 50.4%, 6.5% and 1.7% (leading to an overall 58.6% that compares similarly with 57.7% over 24 hours) of patients. […] An infrequent but important toxicity was the renal toxicity, represented by creatinine abnormalities, that is also higher than in the 24 hour schedule. […]

canine progenitor cells = conditions: cited from earlier work
cancer patients [3] = test: phase II programme, 24 hour every 3 weeks schedule; type: in vivo, human
Description: as §1
The 3 hour every three weeks schedule has the signifcant advantage of being more confortable for the patient because it reduces the time being spent at the hospital for infusion and monitoring, in particular avoiding overnight stay.

cancer patients [4] = conditions: cited from earlier work
mice = conditions: single or fractionated dose, intravenous; cited from earlier work
cancer patients [5] = conditions: cited from earlier work; remark: listed apart in the source
rats = conditions: single or fractionated dose, intravenous; cited from earlier work
cynomolgus monkeys = conditions: cited from earlier work
cancer patients [6] = conditions: cited from earlier work; remark: listed apart in the source
[7] = 3 hour infusion, worst grade per patient
[8] = Per patient (3 h), number (percent)
[9] = starting dose reduced to 1300, % of patients
[10] = 24 hour infusion, worst grade per patient
[11] = 24 h schedule every three weeks
[12] = Per patient (24 h), number (percent)
[13] = 1 hr infusion days 1-5 every 3 weeks

ecteinascidin 743 [ET-743]
sensitivity of progenitor cells (murine progenitor cells): equal sensitivity of erythropoid and myeloid cells
further toxicity in dogs (dogs; following administration): vomiting and diarrhoea
toxicity (dogs; single or fractionated dose, intravenous, dogs): reversible hematological and hepatic toxicity
antitumor activity in vivo (human tumor xenografts): Potent antitumor activity
maximum tolerated dose (MTD) (cancer patients [1]): 1100 μg/m^2
Alk Phosph, NCI-CTC Grade 1 (cancer patients [2]; [7]): 115 (50.4) Number of patients (%)
Alk Phosph, NCI-CTC Grade 2 (cancer patients [2]; [7]): 15 (6.5) Number of patients (%)
Alk Phosph, NCI-CTC Grade 3 (cancer patients [2]; [7]): 4 (1.7) Number of patients (%)
Alk Phosph, NCI-CTC Grade 4 (cancer patients [2]; [7]): 2 (0.8) Number of patients (%)
Bilirubin, NCI-CTC Grade 1 (cancer patients [2]; [7]): 59 (25.8) Number of patients (%)
Bilirubin, NCI-CTC Grade 2 (cancer patients [2]; [7]): 38 (16.6) Number of patients (%)
Bilirubin, NCI-CTC Grade 3 (cancer patients [2]; [7]): 6 (2.6) Number of patients (%)
Bilirubin, NCI-CTC Grade 4 (cancer patients [2]; [7]): 0 ^ Number of patients (%)
Hemoglobin, NCI-CTC Grade 0-1 (cancer patients [2]; [7]): 132 (55) Number of patients (%)
Hemoglobin, NCI-CTC Grade 2 (cancer patients [2]; [7]): 80 (33.4) Number of patients (%)
Hemoglobin, NCI-CTC Grade 3 (cancer patients [2]; [7]): 23 (9.6) Number of patients (%)
Hemoglobin, NCI-CTC Grade 4 (cancer patients [2]; [7]): 4 (1.6) Number of patients (%)
Neutrophils, NCI-CTC Grade 0-1 (cancer patients [2]; [7]): 59 (24.5) Number of patients (%)
Neutrophils, NCI-CTC Grade 2 (cancer patients [2]; [7]): 42 (17.4) Number of patients (%)
Neutrophils, NCI-CTC Grade 3 (cancer patients [2]; [7]): 57 (23.6) Number of patients (%)
Neutrophils, NCI-CTC Grade 4 (cancer patients [2]; [7]): 85 (35.2) Number of patients (%)
Platelets, NCI-CTC Grade 0-1 (cancer patients [2]; [7]): 170 (69.1) Number of patients (%)
Platelets, NCI-CTC Grade 2 (cancer patients [2]; [7]): 26 (10.6) Number of patients (%)
Platelets, NCI-CTC Grade 3 (cancer patients [2]; [7]): 31 (12.6) Number of patients (%)
Platelets, NCI-CTC Grade 4 (cancer patients [2]; [7]): 14 (5.6) Number of patients (%)
SGOT/AST, NCI-CTC Grade 1 (cancer patients [2]; [7]): 17 (7.2) Number of patients (%)
SGOT/AST, NCI-CTC Grade 2 (cancer patients [2]; [7]): 29 (12.3) Number of patients (%)
SGOT/AST, NCI-CTC Grade 3 (cancer patients [2]; [7]): 117 (49.7) Number of patients (%)
SGOT/AST, NCI-CTC Grade 4 (cancer patients [2]; [7]): 58 (24.6) Number of patients (%)
SGPT/ALT, NCI-CTC Grade 1 (cancer patients [2]; [7]): 13 (5.5) Number of patients (%)
SGPT/ALT, NCI-CTC Grade 2 (cancer patients [2]; [7]): 19 (8.1) Number of patients (%)
SGPT/ALT, NCI-CTC Grade 3 (cancer patients [2]; [7]): 107 (45.7) Number of patients (%)
SGPT/ALT, NCI-CTC Grade 4 (cancer patients [2]; [7]): 87 (37.1) Number of patients (%)
Increased transaminases (grade 3-4), cycles (cancer patients [2]; 3 hour schedule, % of cycles): 58.3%
Grades 1-3 of bilirubin (cancer patients [2]; 3 hour schedule, % of patients): 45%
Increased transaminases (grade 3-4), patients (cancer patients [2]; 3 hour schedule, % of patients): 83.4%
alkaline phosphatase overall (cancer patients [2]; 3 hour schedule, % of patients): 58.6%
grade 1 alkaline phosphatase (cancer patients [2]; 3 hour schedule, % of patients): 50.4%
grade 2 alkaline phosphatase (cancer patients [2]; 3 hour schedule, % of patients): 6.5%
grade 3 alkaline phosphatase (cancer patients [2]; 3 hour schedule, % of patients): 1.7%
recommended dose (cancer patients [2]; 3 hour schedule, at present (reduced)): 1300 μg/m^2
Grade 3-4 ALT (cancer patients [2]; 3 h schedule every three weeks): 82.8%
Grade 3-4 Bilirubin (cancer patients [2]; 3 h schedule every three weeks): 2.6%
Grade 3-4 Creatinine (cancer patients [2]; 3 h schedule every three weeks): 2.3%
Grade 3-4 Creatinine Kinase (cancer patients [2]; 3 h schedule every three weeks): 1.5%
Grade 3-4 Hemoglobin (cancer patients [2]; 3 h schedule every three weeks): 11.3%
Grade 3-4 Neutrophils (cancer patients [2]; 3 h schedule every three weeks): 58.3%
Grade 3-4 Platelets (cancer patients [2]; 3 h schedule every three weeks): 18.7%
Creatinine abnormalities, NCI-CTC Grade 1 (cancer patients [2]; [8]): 44 (20.1)
Creatinine abnormalities, NCI-CTC Grade 2 (cancer patients [2]; [8]): 10 (4.6)
Creatinine abnormalities, NCI-CTC Grade 3 (cancer patients [2]; [8]): 5 (2.3)
Creatinine abnormalities, NCI-CTC Grade 4 (cancer patients [2]; [8]): 0 ^
grade 3 ALT (cancer patients [2]; [9]): 38%
grade 4 ALT (cancer patients [2]; [9]): 8.5%
sensitivity of progenitor cells (canine progenitor cells): equal sensitivity of erythropoid and myeloid cells
Alk Phosph, NCI-CTC Grade 1 (cancer patients [3]; [10]): 149 (46.7) Number of patients (%)
Alk Phosph, NCI-CTC Grade 2 (cancer patients [3]; [10]): 29 (9.1) Number of patients (%)
Alk Phosph, NCI-CTC Grade 3 (cancer patients [3]; [10]): 6 (1.9) Number of patients (%)
Bilirubin, NCI-CTC Grade 1 (cancer patients [3]; [10]): 49 (15.3) Number of patients (%)
Bilirubin, NCI-CTC Grade 2 (cancer patients [3]; [10]): 23 (6.9) Number of patients (%)
Bilirubin, NCI-CTC Grade 3 (cancer patients [3]; [10]): 4 (1.3) Number of patients (%)
Gamma GT, NCI-CTC Grade 1 (cancer patients [3]; [10]): 25 (22.9) Number of patients (%)
Gamma GT, NCI-CTC Grade 2 (cancer patients [3]; [10]): 29 (26.6) Number of patients (%)
Gamma GT, NCI-CTC Grade 3 (cancer patients [3]; [10]): 32 (29.4) Number of patients (%)
Gamma GT, NCI-CTC Grade 4 (cancer patients [3]; [10]): 2 (1.8) Number of patients (%)
Hemoglobin, NCI-CTC Grade 0-1 (cancer patients [3]; [10]): 165 (51.6) Number of patients (%)
Hemoglobin, NCI-CTC Grade 2 (cancer patients [3]; [10]): 111 (34.7) Number of patients (%)
Hemoglobin, NCI-CTC Grade 3 (cancer patients [3]; [10]): 33 (10.3) Number of patients (%)
Hemoglobin, NCI-CTC Grade 4 (cancer patients [3]; [10]): 11 (3.4) Number of patients (%)
Neutrophils, NCI-CTC Grade 0-1 (cancer patients [3]; [10]): 103 (32.3) Number of patients (%)
Neutrophils, NCI-CTC Grade 2 (cancer patients [3]; [10]): 54 (16.9) Number of patients (%)
Neutrophils, NCI-CTC Grade 3 (cancer patients [3]; [10]): 92 (28.8) Number of patients (%)
Neutrophils, NCI-CTC Grade 4 (cancer patients [3]; [10]): 70 (21.9) Number of patients (%)
Platelets, NCI-CTC Grade 0-1 (cancer patients [3]; [10]): 260 (81.5) Number of patients (%)
Platelets, NCI-CTC Grade 2 (cancer patients [3]; [10]): 17 (5.3) Number of patients (%)
Platelets, NCI-CTC Grade 3 (cancer patients [3]; [10]): 35 (11.0) Number of patients (%)
Platelets, NCI-CTC Grade 4 (cancer patients [3]; [10]): 7 (2.2) Number of patients (%)
SGOT/AST, NCI-CTC Grade 1 (cancer patients [3]; [10]): 74 (23.2) Number of patients (%)
SGOT/AST, NCI-CTC Grade 2 (cancer patients [3]; [10]): 88 (27.6) Number of patients (%)
SGOT/AST, NCI-CTC Grade 3 (cancer patients [3]; [10]): 120 (37.6) Number of patients (%)
SGOT/AST, NCI-CTC Grade 4 (cancer patients [3]; [10]): 16 (5.0) Number of patients (%)
SGPT/ALT, NCI-CTC Grade 1 (cancer patients [3]; [10]): 62 (19.4) Number of patients (%)
SGPT/ALT, NCI-CTC Grade 2 (cancer patients [3]; [10]): 83 (25.9) Number of patients (%)
SGPT/ALT, NCI-CTC Grade 3 (cancer patients [3]; [10]): 127 (39.7) Number of patients (%)
SGPT/ALT, NCI-CTC Grade 4 (cancer patients [3]; [10]): 30 (9.4) Number of patients (%)
recommended dose (cancer patients [3]; 24 hour schedule, phase II): 1500 μg /m^2
Grade 3-4 ALT (cancer patients [3]; [11]): 49.1%
Grade 3-4 Bilirubin (cancer patients [3]; [11]): 1.3%
Grade 3-4 Creatinine (cancer patients [3]; [11]): 0.7%
Grade 3-4 Creatinine Kinase (cancer patients [3]; [11]): 2.2%
Grade 3-4 Hemoglobin (cancer patients [3]; [11]): 13.7%
Grade 3-4 Neutrophils (cancer patients [3]; [11]): 50.7%
Grade 3-4 Platelets (cancer patients [3]; [11]): 13.2%
Creatinine abnormalities, NCI-CTC Grade 1 (cancer patients [3]; [12]): 76 (23.9)
Creatinine abnormalities, NCI-CTC Grade 2 (cancer patients [3]; [12]): 19 (6.0)
Creatinine abnormalities, NCI-CTC Grade 3 (cancer patients [3]; [12]): 3 (0.9)
Creatinine abnormalities, NCI-CTC Grade 4 (cancer patients [3]; [12]): 2 (0.6)
Grades 1-3 of bilirubin (cancer patients [3]; over 24 hours, % of patients): 23.8%
alkaline phosphatase overall (cancer patients [3]; over 24 hours, % of patients): 57.7%
MTD (cancer patients [4]; 72 hr infusion every 3 weeks): 1200 μg/M^2
RD (cancer patients [4]; 72 hr infusion every 3 weeks): 1050 μg/M^2
reversible grade 4 transaminases elevation (cancer patients [4]; at 1200 μg/M^2 (MTD)): 2 out of 9
grade 3 hypertransaminasemia (cancer patients [4]; at the RD (1050 μg/M^2), % of patients): 50%
grade 4 hypertransaminasemia (cancer patients [4]; at the RD (1050 μg/M^2)): there was not any grade 4 hypertransaminasemia
toxicity (mice): reversible hematological and hepatic toxicity
MTD (cancer patients [5]; 3-hr infusion every 3 weeks): 1800 μg/M^2
RD for Phase II studies (cancer patients [5]; 3-hr infusion every 3 weeks): 1650 μg/M^2
increases of bilirubin G2 or greater (cancer patients [5]; % of treatment courses at the RD): 9%
toxicity (rats): reversible hematological and hepatic toxicity
toxicity (cynomolgus monkeys; fractionated dosing): only minor toxicity
toxicity (cynomolgus monkeys; single doses): hepatic and hematological toxicity, emesis and diarrhoea
MTD (cancer patients [6]; [13]): 380 μg/m^2/day
RD (cancer patients [6]; [13]): 325 μg/m^2/day
cycles delayed (cancer patients [6]; at 325 μg/m^2/day (RD)): 59%
median day of recovery to grade 1 for neutropenia (cancer patients [6]; at 325 μg/m^2/day (RD)): 28 days
patients who developed DLT (cancer patients [6]; at 380 μg/m^2/day (MTD)): 3 patients
Reversible grade 3 transaminases, cycles (cancer patients [6]; at the recommended dose, % of cycles): 14%
Reversible grade 3 transaminases, patients (cancer patients [6]; at the recommended dose, % of patients): 31%
